Values of other authors in US20040209811A1, “Oral prohylactic agent against viral infection” (Chuang-Chun Chiueh, priority 2003, published 2004).

Legend:
cells = conditions: at >0.3 μM concentration
enterovirus = conditions: full prevention of infection; protected cells from viral invasion and pathological changes

phycocyanin
toxicity to cells (cells): non-toxic to cells
concentration that could fully prevent enteroviral infection (enterovirus): > 0.3 µM
concentration found to prevent the infection of influenza viruses (influenza viruses): > 0.04 µM
